Data set [1] can be described thus: method code SF-AS, from DOI: 10.3109/03639048709068705.
The nature of data set [2]: method code SF-AS, from DOI: 10.1002/ardp.19853180604, PMID: 4026543. The note with it: pH 7.4.
Data set [3] can be described thus: method code SF-AS, from DOI: 10.1016/0378-5173(85)90003-1.
Assay in data set [4]: not given
This is another data set of the same source.

Data set [5] can be described thus: method code SF-AS, from DOI: 10.1016/s0020-1693(00)85781-3.
Assay in data set [6]: not given
This is another data set of the same source.

Data set [7] in a line: method code SF-HPLC, from DOI: 10.1248/cpb.47.1081, PMID: 10478463. As to conditions: pH 6.5.
Data set [8] is described as follows: method code SF-AS, from DOI: 10.1021/jm00234a001, PMID: 1003419.
Data set [9] is described as follows: method code SF-RC, from DOI: 10.1016/j.nucmedbio.2014.05.001, PMID: 24969632. As to conditions: pH 7.4.
Data set [10] in a line: method code SF-HPLC, from DOI: 10.1016/j.bmc.2015.09.009, PMID: 26385444.
A short description of data set [11]: method code SF-AS, from DOI: 10.1248/bpb1978.4.759, PMID: 7320829.
Assay in data set [12]: not given
This is another data set of the same source.

Data set [13] is described as follows: method code SF-HPLC, from DOI: 10.1016/0731-7085(91)80215-u, PMID: 1821151. As to conditions: pH 7.4.
Data set [14] can be described thus: method code SF, from DOI: 10.1021/jm00294a005, PMID: 5000561.
Data set [15] is described as follows: method code SF-RC, from DOI: 10.1016/j.nucmedbio.2007.12.005, PMID: 18355688. As to conditions: pH 7.4.
Data set [16] can be described thus: method code SF-HPLC, from DOI: 10.1016/s0223-5234(98)80037-8. As to conditions: pH 7.4.
Assay in data set [17]: not given
The source holds these as a separate data set.

A short description of data set [18]: method code SF-HPLC, from DOI: 10.1016/s0024-3205(00)00615-9, PMID: 10901288. As to conditions: pH 5.0.
Data set [19] is described as follows: from Ganellin, C.; Brown, T.; Griffiths, R.; Jones, M.; Mitchell, C.; Rana, K.; Saunders, D.; Smith, I.; Sore, E.; Wilks, J.; Young, R. (1991). Use of partition coefficients as a model for brain ….
Assay in data set [20]: not given
The source holds these as a separate data set.

The structures appear in SMILES notation.

The term logP denotes a log measure of how a compound divides between an organic and an aqueous phase. Read a high logP as a more lipophilic compound. By logD is commonly meant the decadic logarithm of the distribution of all forms, ionised or not, between an organic phase and buffer at a given pH.

Molecule `COc1cc(C=Cc2ccncc2)ccc1C=Cc1ccncc1` displayed a logP of 3.73.

In turn, `CCCC(=O)OC(CNC(C)C)COc1cccc2ccccc12` (stereo unspecified) yielded a logP in [1] of 5.56.

`Cc1ccc(N2C(=O)CSC2=Nn2c(C)nc3ccccc3c2=O)cc1`: the logD in [2] is -1.12.

Take `CC(=O)OCC1=C(C(=O)OCOC(=O)C(C)(C)C)N2C(=O)C(NC(=O)CSc3ccncc3)C2SC1` (stereo unspecified): the logD in data set [3] (pH 4.6) was determined as 1.63.

In data set [4], `COc1ccc2cc(C(C)C(=O)OCC(O)CO)ccc2c1` (stereo unspecified) came in with a logP of 2.65.

As to `CC(C)(C)c1ccc2c(c1)COCCOCCOCCOCCOCCOC2`, the lipophilicity (logP) in [5] amounted to 1.71.

For `CCCCCCCCCCCCCCCCCCCc1cc(O)cc(O)c1`, the lipophilicity (logP) in [6] was found to be 10.9.

Consider `CCOC(=O)OC(C)OC(=O)C1=CCSC2C(NC(=O)C(=NOC)c3csc(N)n3)C(=O)N12` (stereo unspecified), for which, in data set [7], the logD came to 0.96.

In [4], `COc1ccc2cc(C(C)C(=O)OCC(COC(=O)C(C)c3ccc4cc(OC)ccc4c3)OC(=O)C(C)c3ccc4cc(OC)ccc4c3)ccc2c1` (stereo unspecified) displayed a logP of 6.84.

Take `OCC1OC(Oc2c(I)cc(I)c(OC3OC(CO)C(O)C(O)C3O)c2I)C(O)C(O)C1O` (stereo unspecified): the logP in data set [8] was -0.74.

`O=C(N1CCC(C(c2ccc3c(c2)OCO3)c2ccc3c(c2)OCO3)CC1)n1cncn1`: the pH-dependent lipophilicity (logD) in [9] stood at 3.32.

In [10], `CC1=C(C(=O)Nc2nc3ccccc3s2)C(c2ccc(F)cc2)NC(=S)N1` (stereo unspecified) had a log partition coefficient (logP) of 2.18.

Consider `COc1ccc(N2C(=O)CSC2=Nn2c(C)nc3ccccc3c2=O)cc1`, for which the logD in data set [2] was -1.23.

In the case of `Nc1ccc(S(=O)(=O)N2C(=O)NC(=O)C2(c2ccccc2)c2ccccc2)cc1`, the logP in [11] turned out to be 3.27.

In the case of `c1ccc2c(c1)COCCOCCOCc1ccccc1COCCOC2`, the lipophilicity (logP) in [5] amounted to 2.21.

On to `Clc1ccc2c(c1)CCc1cccnc1C2=C1CCNCC1`, for which the logP in data set [12] stood at 2.56.

`COc1ccc2cc(C(C)C(=O)OCC3COC(C)(C)O3)ccc2c1` (stereo unspecified): in [4], the logP is 4.23.

The molecule `Cc1nnc(SCC2=C(C(=O)OCOC(=O)C(C)(C)C)N3C(=O)C(NC(=O)Cn4cnnn4)C3SC2)s1` (stereo unspecified) returned a log distribution coefficient (logD) in data set [3] (pH 4.5) of 1.34.

With `CC1=C(C(=O)Nc2nc3ccccc3s2)C(c2ccc(N(C)C)cc2)NC(=S)N1` (stereo unspecified), in data set [10], the logP stood at 2.22.

In [13], `CCC(C(=O)OCC1CCCCC1)C(COC(C)=O)c1cncn1C` (stereo unspecified) yielded a logD of 3.86.

Molecule `CNC(=O)c1c(I)c(O[C@@H]2O[C@H](CO)[C@@H](O)[C@H](O)[C@H]2O)c(I)c(O[C@@H]2O[C@H](CO)[C@@H](O)[C@H](O)[C@H]2O)c1I` gave a logP in data set [8] of -1.57.

In turn, `CCCCCCCCCCCCCCCc1cc(O)cc(O)c1` registered a lipophilicity (logP) in data set [6] of 7.4.

As for `O=C(N1CCN(C(c2ccccc2)c2ccccc2)CC1)n1nnc2ccccc21`, the pH-dependent lipophilicity (logD) in data set [9] turned out to be 3.61.

In data set [14], `CCC(=O)OC1C(C)OC(OC2C(C)OC(OC3C(CC=O)CC(C)C(O)/C=C/C=C/CC(C)OC(=O)CC(OC(C)=O)C3OC)C(O)C2N(C)C)CC1(C)O` (stereo unspecified) came in with a logP of 1.38.

Take `CCCCN(C)C(=O)Cc1c(-c2ccc(Cl)cc2)nc2c(Cl)cc(Cl)cn12`: the pH-dependent lipophilicity (logD) in [15] came to 2.2.

For `COc1cc(C=Cc2ccccn2)ccc1C=Cc1ccccn1`, the logP amounted to 4.25.

In turn, `CCC(=O)OCC(c1cncn1C)C(CC)C(=O)OCC1CCCCC1` (stereo unspecified) displayed a logD in data set [13] of 4.4.

In data set [2], `Cc1nc2ccccc2c(=O)n1N=C1SCC(=O)N1c1ccc(F)cc1` displayed a logD of -1.36.

The molecule `COc1ccc2c(c1)c(CC(=O)OCN1C(=O)c3ccccc3C1=O)c(C)n2C(=O)c1ccc(Cl)cc1` came in with a log distribution coefficient (logD) in [16] of 5.64.

Take `CCc1ccc2c(c1)COCCOCCOCCOCCOCCOC2`: the lipophilicity (logP) in data set [5] was 0.98.

For `CON=C(C(=O)NC1C(=O)N2C(C(=O)OCOC(=O)C(C)(C)C)=CCSC12)c1csc(N)n1` (stereo unspecified), in data set [7], the pH-dependent lipophilicity (logD) was 1.57.

For `OCC1OC(Oc2cc(OC3OC(CO)C(O)C(O)C3O)c(I)cc2I)C(O)C(O)C1O` (stereo unspecified), in [8], the logP was -0.25.

`O=C1C(CCS(=O)c2ccccc2)C(=O)N(c2ccccc2)N1c1ccccc1` (stereo unspecified) came in with a logP in data set [17] of 3.56.

On to `OC(CCCN1CCC(C(O)(c2ccccc2)c2ccccc2)CC1)c1ccccc1` (stereo unspecified), for which the logP in data set [12] was 3.9.

On to `CCCCC(=O)OC(CNC(C)C)COc1cccc2ccccc12` (stereo unspecified), for which the log partition coefficient (logP) in data set [1] was 6.3.

Molecule `CC(=O)Oc1ccccc1C(=O)OCN1C(=O)c2ccccc2C1=O` returned a log distribution coefficient (logD) in data set [16] of 3.23.

For the molecule `CO[C@@H]1[C@@H](O[C@@H]2O[C@H](C)[C@@H](O[C@H]3C[C@@](C)(O)[C@@H](OC(=O)CC(C)C)[C@H](C)O3)[C@H](N(C)C)[C@H]2O)[C@@H](CC=O)C[C@@H](C)[C@@H](O)/C=C/C=C/C[C@@H](C)OC(=O)C[C@H]1O`, the logP in data set [14] was found to be 2.18.

In the case of `C(=Cc1ccccn1)c1ccc(C=Cc2ccccn2)cc1`, the log partition coefficient (logP) is 3.75.

In turn, `CCNC(=O)Oc1cc(/C=C(\C#N)C(=O)N(CC)CC)cc([N+](=O)[O-])c1O` returned a logD in [18] of 0.82.

As for `CCCCCCCCCCCCCCCCCc1cc(O)cc(O)c1`, the lipophilicity (logP) in data set [6] is 9.2.

With `CCCCCCCC(=O)OC(CNC(C)C)COc1cccc2ccccc12` (stereo unspecified), in [1], the logP turned out to be 7.87.

For the molecule `CC1=C(CC(=O)O)c2cc(F)ccc2/C1=C/c1ccc(S(C)(=O)=O)cc1`, in data set [17], the logP is 3.29.

Consider `O=C1C(CCS(=O)(=O)c2ccccc2)C(=O)N(c2ccccc2)N1c1ccccc1`, for which the logP in data set [17] amounted to 3.51.

`CN(C(=O)Cc1c(-c2ccc(Cl)cc2)nc2c(Cl)cc(Cl)cn12)c1ccccc1` came in with a log distribution coefficient (logD) in data set [15] of 2.2.

In the case of `CN(C)Cc1ccc(CSCCNc2nc(=O)c(Cc3ccc4ccccc4c3)c[nH]2)o1`, the lipophilicity (logP) in data set [19] is 4.57.

Regarding `CN1CCC(=C2c3ccccc3CCc3cccnc32)CC1`, the log partition coefficient (logP) in [12] turned out to be 3.59.

Turning to `CCCCN(C)C(=O)Cc1c(-c2ccccc2)nc2c(Cl)cc(Cl)cn12`, the logD in data set [15] turned out to be 2.14.

In data set [19], `c1cc(CN2CCCCC2)cc(OCCCNc2nc3ccccc3s2)c1` had a lipophilicity (logP) of 5.41.

For `CCCC1CC(C(=O)NC(C(C)O)C2OC(SC)C(O)C(O)C2O)N(C)C1` (stereo unspecified), in data set [14], the lipophilicity (logP) worked out at 0.2.

With `O=C1NC(=O)C(c2ccccc2)(c2ccccc2)N1S(=O)(=O)c1ccc(O)cc1`, the logD in [11] (pH 7.0) stood at 1.62.

The molecule `O=C1NC(=O)C(c2ccccc2)(c2ccccc2)N1S(=O)(=O)c1ccc([N+](=O)[O-])cc1` showed a logP in data set [11] of 4.04.

As for `Cc1cccc2c1Oc1cc(Cl)ccc1C2NC(=O)CN(C)C` (stereo unspecified), the log partition coefficient (logP) in data set [20] was determined as 3.44.

`CC1=C(C(=O)Nc2nc3ccccc3s2)C(c2ccc(C(F)(F)F)cc2)NC(=S)N1` (stereo unspecified) registered a logP in data set [10] of 2.92.

With `CC(C)Cc1ccc(C(C)C(=O)OCN2C(=O)c3ccccc3C2=O)cc1` (stereo unspecified), the logD in [16] was determined as 5.36.

In the case of `Cc1cccc2c1Oc1ccccc1C2NC(=O)CN(C)C` (stereo unspecified), the logP in data set [20] is 2.7.

`CO/N=C(/C(=O)NC1C(=O)N2C(C(=O)OCc3oc(=O)oc3C)=CCSC12)c1csc(N)n1` (stereo unspecified) gave a logD in data set [7] of 0.17.

Regarding `O=C(OC(C(F)(F)F)C(F)(F)F)N1CCN(Cc2cccc(Oc3ccccc3)c2)CC1`, the logD in [9] was found to be 5.

On to `CCC(C(=O)OCC1CCCCC1)C(COC(=O)c1ccccc1)c1cncn1C` (stereo unspecified), for which the pH-dependent lipophilicity (logD) in data set [13] turned out to be 5.47.

For the molecule `CC(C)(C)C(=O)OCOC(=O)C1=C(CSc2nncs2)CSC2C(NC(=O)Cn3cnnn3)C(=O)N12` (stereo unspecified), in [3] (pH 4.6), the log distribution coefficient (logD) was found to be 1.45.

In data set [20], `CCN(CC)CC(=O)NC1c2ccccc2Oc2c(C)cccc21` (stereo unspecified) had a logP of 3.73.

For `COc1cccnc1CCCCNc1nc(=O)c(Cc2ccc(C)nc2)c[nH]1`, the logP in data set [19] amounted to 2.58.

Source of the values: the SangsterLogP compilation.
